Measurements from patent US11274085B2, “3-aryl-bicyclic [4,5,0] hydroxamic acids as HDAC inhibitors” (Valo Health, Inc., priority 2015, dated 2022).

Target: T1, human recombinant HDAC6 (Homo sapiens, UniProt Q9UBN7)
T1 sequence (Q9UBN7 1-1215): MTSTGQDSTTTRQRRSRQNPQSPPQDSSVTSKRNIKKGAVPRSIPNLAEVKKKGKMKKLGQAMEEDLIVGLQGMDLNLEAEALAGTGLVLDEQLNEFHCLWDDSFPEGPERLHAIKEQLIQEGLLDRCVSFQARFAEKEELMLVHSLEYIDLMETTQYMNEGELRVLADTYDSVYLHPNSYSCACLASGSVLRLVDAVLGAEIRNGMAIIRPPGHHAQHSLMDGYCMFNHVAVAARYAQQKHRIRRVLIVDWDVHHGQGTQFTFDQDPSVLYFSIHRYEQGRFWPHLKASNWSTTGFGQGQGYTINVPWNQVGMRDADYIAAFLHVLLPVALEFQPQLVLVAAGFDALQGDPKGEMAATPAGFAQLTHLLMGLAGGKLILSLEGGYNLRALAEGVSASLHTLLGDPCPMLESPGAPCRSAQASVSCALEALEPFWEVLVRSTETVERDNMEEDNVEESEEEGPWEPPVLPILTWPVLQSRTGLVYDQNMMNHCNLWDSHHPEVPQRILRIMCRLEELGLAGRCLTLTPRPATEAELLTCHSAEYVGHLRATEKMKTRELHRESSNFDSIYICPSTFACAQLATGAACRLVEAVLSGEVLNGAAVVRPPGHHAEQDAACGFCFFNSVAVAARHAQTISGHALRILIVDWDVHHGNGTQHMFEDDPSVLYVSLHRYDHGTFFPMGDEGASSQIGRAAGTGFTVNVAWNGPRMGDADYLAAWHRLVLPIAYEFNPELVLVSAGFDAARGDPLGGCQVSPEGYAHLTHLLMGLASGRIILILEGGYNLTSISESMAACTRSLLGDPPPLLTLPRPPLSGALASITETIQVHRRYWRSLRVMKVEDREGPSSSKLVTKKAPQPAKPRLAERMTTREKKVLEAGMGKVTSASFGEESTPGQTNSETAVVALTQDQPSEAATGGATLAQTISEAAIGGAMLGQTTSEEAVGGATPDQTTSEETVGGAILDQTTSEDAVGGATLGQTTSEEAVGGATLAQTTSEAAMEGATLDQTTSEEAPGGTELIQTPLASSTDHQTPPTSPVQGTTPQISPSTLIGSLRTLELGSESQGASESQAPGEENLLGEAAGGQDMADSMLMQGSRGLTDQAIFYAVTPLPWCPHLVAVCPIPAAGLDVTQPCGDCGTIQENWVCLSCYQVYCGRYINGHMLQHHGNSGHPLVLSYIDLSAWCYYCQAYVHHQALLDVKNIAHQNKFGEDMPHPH
Test: In vitro histone deacetylase assay: enzymatic HDAC6 electrophoretic mobility shift assay
Format: biochemical
Conditions: full length human recombinant HDAC6 1 nM, 2 μM peptide substrate RHKK(Ac)-NH2, 25° C.; read-out: Inhibitory Concentration (IC50) against HDAC6, Activity Range
Experimental: The enzymatic HDAC6 assay was performed using electrophoretic mobility shift assay. […] The enzymatic reactions were assembled in 384 well plates and in a total volume of 25 μL in a reaction buffer comprising: 100 mM HEPES, pH 7.5, 25 mM KCl, 0.1% bovine serum albumin, 0.01% Triton X-100, 1% DMSO (from compounds), 2 μM of the fluorescently labeled peptide substrate, and enzyme. The enzyme was added at a final concentration of 1 nM and the peptide substrate RHKK(Ac)—NH2 was used. The compounds were tested at 12 concentrations spaced by 3× dilution intervals. Negative control samples (0%-inhibition in the absence of inhibitor) and positive control samples (100%-inhibition) were assembled in replicates of four in each assay plate. The reactions were incubated at 25° C. and quenched by the addition of 45 μL of termination buffer (100 mM HEPES, pH 7.5, 0.01% Triton X-100, 0.05% SDS).
The terminated assay plates were analyzed on LabChip® 3000 microfluidic electrophoresis instrument (Perkin Elmer/Caliper Life Sciences). The fluorescence intensity of the electrophoretically separated de-acetylated product and substrate peptide was measured. Activity in each sample was determined as the product to sum ratio (PSR):P/(S+P), where P is the peak height of the product peptide and S is the peak height of the substrate peptide. Percent inhibition (Pinh) is determined using the following equation: Pinh=(PSR0%−PSRinh)/(PSR0%−PSR100%)*100, where PSRinh is the product sum ratio in the presence of inhibitor, PSR0% is the average product sum ration in the absence of inhibitor, and PSR100% is the average product sum ratio in 100%-inhibition control samples. The IC50 values of inhibitors were determined by fitting the %-inhibition curves with 4 parameter dose-response model using XLfit 4 software.
As set forth in Table 4, below, IC50 values are defined as follows: IC50≤0.1 μM (+++); IC50>0.1 μM and ≤0.5 μM (++); IC50>0.5 μM (+).

| Structure (SMILES) | IC50 [nM] |
| --- | --- |
| Cc1ccc([C@H]2COc3cc(C(=O)NO)ccc3CN2C(=O)N2CCOCC2)cc1 [(S)-N-hydroxy-4-(morpholine-4-carbonyl)-3-(p-tolyl)-2,3,4,5-tetrahydrobenzo[f][1,4]oxazepine-8-carboxamide] | ≤ 100 |
| COc1ccc(CN2Cc3ccc(C(=O)NO)cc3OC[C@@H]2c2ccccc2)cc1 [(S)-N-hydroxy-4-(4-methoxybenzyl)-3-phenyl-2,3,4,5-tetrahydrobenzo[f][1,4]oxazepine-8-carboxamide] | ≤ 100 |
| O=C(NO)c1ccc2c(c1)OC[C@@H](c1ccccc1)N(c1ccccc1)C2 [(R)-N-hydroxy-3,4-diphenyl-2,3,4,5-tetrahydrobenzo[f][1,4]oxazepine-8-carboxamide] | 100 to 500 |
| CN1Cc2ccc(C(=O)NO)cc2OC[C@@H]1c1ccccc1 [(S)-N-hydroxy-4-methyl-3-phenyl-2,3,4,5-tetrahydrobenzo[f][1,4]oxazepine-8-carboxamide] | ≤ 100 |
| O=C(NO)c1ccc2c(c1)OC[C@H](c1ccccc1)N(C(=O)N1CCOCC1)C2 [(S)-N-hydroxy-4-(morpholine-4-carbonyl)-3-phenyl-2,3,4,5-tetrahydrobenzo[f][1,4]oxazepine-8-carboxamide] | ≤ 100 |
| O=C(NO)c1ccc2c(c1)OC[C@H](c1ccccc1)N(S(=O)(=O)c1ccc(F)cc1)C2 [(S)-4-((4-fluorophenyl)sulfonyl)-N-hydroxy-3-phenyl-2,3,4,5-tetrahydrobenzo[f][1,4]oxazepine-8-carboxamide] | 100 to 500 |
| O=C(NO)c1ccc2c(c1)OC[C@@H](c1cccnc1)N(C(=O)N1CCOCC1)C2 (single isomer, unassigned) | > 500 |
| O=C(NO)c1ccc2c(c1)OC[C@H](c1ccc(Cl)cc1)N(C(=O)N1CCOCC1)C2 [(S)-3-(4-chlorophenyl)-N-hydroxy-4-(morpholine-4-carbonyl)-2,3,4,5-tetrahydrobenzo[f][1,4]oxazepine-8-carboxamide] | ≤ 100 |
| COC1CCN(C(=O)N2Cc3ccc(C(=O)NO)cc3OC[C@@H]2c2ccccc2)CC1 [(S)-N-hydroxy-4-(4-methoxypiperidine-1-carbonyl)-3-phenyl-2,3,4,5-tetrahydrobenzo[f][1,4]oxazepine-8-carboxamide] | ≤ 100 |
| O=C(NO)c1ccc2c(c1)OC[C@H](c1ccc(F)cc1)N(C(=O)N1CCOCC1)C2 [(S)-3-(4-fluorophenyl)-N-hydroxy-4-(morpholine-4-carbonyl)-2,3,4,5-tetrahydrobenzo[f][1,4]oxazepine-8-carboxamide] | ≤ 100 |
| O=C(NO)c1ccc2c(c1)OC[C@H](c1ccccc1)N(C(=O)Nc1cccnc1)C2 [(S)-N8-hydroxy-3-phenyl-N4-(pyridin-3-yl)-2,3-dihydrobenzo[f][1,4]oxazepine-4,8(5H)-dicarboxamide] | ≤ 100 |
| O=C(NO)c1ccc2c(c1)OC[C@H](c1ccccc1)N(C(=O)N1CCCC1)C2 [(S)-N-hydroxy-3-phenyl-4-(pyrrolidine-1-carbonyl)-2,3,4,5-tetrahydrobenzo[f][1,4]oxazepine-8-carboxamide] | ≤ 100 |
| O=C(NO)c1ccc2c(c1)OC[C@H](c1cccc(Cl)c1)N(C(=O)N1CCOCC1)C2 [(S)-3-(3-chlorophenyl)-N-hydroxy-4-(morpholine-4-carbonyl)-2,3,4,5-tetrahydrobenzo[f][1,4]oxazepine-8-carboxamide] | ≤ 100 |
| O=C(NO)c1ccc2c(c1)OC[C@H](c1ccc(C(F)(F)F)cc1)N(C(=O)N1CCOCC1)C2 [(S)-N-hydroxy-4-(morpholine-4-carbonyl)-3-(4-(trifluoromethyl)phenyl)-2,3,4,5-tetrahydrobenzo[f][1,4]oxazepine-8-carboxamide] | ≤ 100 |
| CN1Cc2ccc(C(=O)NO)cc2OC[C@H]1c1ccccc1 [(R)-N-hydroxy-4-methyl-3-phenyl-2,3,4,5-tetrahydrobenzo[f][1,4]oxazepine-8-carboxamide] | ≤ 100 |
| CN(C)C(=O)N1Cc2ccc(C(=O)NO)cc2OC[C@@H]1c1ccccc1 [(S)-N8-hydroxy-N4,N4-dimethyl-3-phenyl-2,3-dihydrobenzo[f][1,4]oxazepine-4,8(5H)-dicarboxamide] | ≤ 100 |
| CC(=O)N1CCN(C(=O)N2Cc3ccc(C(=O)NO)cc3OC[C@@H]2c2ccccc2)CC1 [(S)-4-(4-acetylpiperazine-1-carbonyl)-N-hydroxy-3-phenyl-2,3,4,5-tetrahydrobenzo[f][1,4]oxazepine-8-carboxamide] | ≤ 100 |
| O=C(NO)c1ccc2c(c1)OC[C@H](c1ccccc1)N(C(=O)NC1CCCCC1)C2 [(S)-N4-cyclohexyl-N8-hydroxy-3-phenyl-2,3-dihydrobenzo[f][1,4]oxazepine-4,8(5H)-dicarboxamide] | ≤ 100 |
| O=C(NO)c1ccc2c(c1)OC[C@H](c1ccccc1)N(C(=O)N1CCCCC1)C2 [(S)-N-hydroxy-3-phenyl-4-(piperidine-1-carbonyl)-2,3,4,5-tetrahydrobenzo[f][1,4]oxazepine-8-carboxamide] | ≤ 100 |
| COc1ccc(CN2Cc3ccc(C(=O)NO)cc3OC[C@H]2c2ccccc2)cc1 [(R)-N-hydroxy-4-(4-methoxybenzyl)-3-phenyl-2,3,4,5-tetrahydrobenzo[f][1,4]oxazepine-8-carboxamide] | ≤ 100 |
| O=C(NO)c1ccc2c(c1)OC[C@H](c1ccccc1)N(C(=O)NC1CCOCC1)C2 [(S)-N8-hydroxy-3-phenyl-N4-(tetrahydro-2H-pyran-4-yl)-2,3-dihydrobenzo[f][1,4]oxazepine-4,8(5H)-dicarboxamide] | ≤ 100 |
| CN1CCN(C(=O)N2Cc3ccc(C(=O)NO)cc3OC[C@@H]2c2ccccc2)CC1 [(S)-N-hydroxy-4-(4-methylpiperazine-1-carbonyl)-3-phenyl-2,3,4,5-tetrahydrobenzo[f][1,4]oxazepine-8-carboxamide] | ≤ 100 |
| O=C(NO)c1ccc2c(c1)OC[C@H](c1ccccc1)N(C(=O)Nc1ccncc1)C2 [(S)-N8-hydroxy-3-phenyl-N4-(pyridin-4-yl)-2,3-dihydrobenzo[f][1,4]oxazepine-4,8(5H)-dicarboxamide] | ≤ 100 |
| O=C(NO)c1ccc2c(c1)OC[C@H](c1ccccc1)N(C(=O)Nc1ccccc1)C2 [(S)-N8-hydroxy-N4,3-diphenyl-2,3-dihydrobenzo[f][1,4]oxazepine-4,8(5H)-dicarboxamide] | ≤ 100 |
| O=C(NO)c1ccc2c(c1)OC[C@H](c1ccccc1)N(c1ccccc1)C2 [(S)-N-hydroxy-3,4-diphenyl-2,3,4,5-tetrahydrobenzo[f][1,4]oxazepine-8-carboxamide] | ≤ 100 |
| O=C(NO)c1ccc2c(c1)OC[C@H](c1cccnc1)N(C(=O)N1CCOCC1)C2 (single isomer, unassigned) | ≤ 100 |
